Results as given in US8158560B2, “Insecticidal arylpyrroline compounds” (Bayer CropScience AG, priority 2009, dated 2012).

Assays:
Format in all cases: in vivo
[1] = tested on: Myzus persicae-resistant strain, mixed population; test: Myzus persicae spray test (MYZUPE); settings: 4 ppm, 6 dat, rating scheme
Procedure: Myzus persicae—Spray Test (MYZUPE)
Insect: Myzus persicae-resistant strain, mixed population
Plant: Eggplant seedling (Solanum melongena var. Senryo 2gou) 2 leaf age (4-5 weeks after sowing), transplanted into vinyl pots of 60 mm diameter
Solvent pre-mixture: Sorpol® SD: Sorpol® BDB:Dimethylformamide=3:3:14; 10 mg a.i. is solved with 0.05 ml solvent pre-mixture. Water for dilution contains RME and AS (1000 ppm each) or 0.1% of spreader. Solutions are diluted at the rate of 1:5 for limit concentration determination.
Procedure: 1 day before treatment aphids are inoculated onto the testing plants, about 50 aphids per leaf, 100 for 1 pot. A paper label is placed on each pot. Solutions are sprayed directly onto both insects and plants. After drying pots are placed in the greenhouse at 20° C.-25° C. and 50-60% relative humidity.
After the specified period of time the mortality in % is determined and the rate of death is calculated according to the following scheme/criteria: […]

Panonychus citri = Panonychus citri spray test (METTCI); settings: 4 ppm, 7 dat, rating scheme b306
Procedure: Panonychus citri—Spray Test (METTCI)
Plant: Citrus plants, ca 8 cm height
(§1) Solvent pre-mixture: Sorpol® SD: Sorpol® BDB:Dimethylformamide=3:3:14
(§2) 10 mg a i. is solved with 0.05 ml solvent pre-mixture.
(§3) Water for dilution contains RME and AS (1000 ppm each) or 0.1% of spreader. Solutions are diluted at the rate of 1:5 for limit concentration determination.
Procedure: 1 day before treatment mites were inoculated onto potted citrus plants, about 50 adults and some nymphs for 1 pot. The test solution is sprayed directly onto both mites and plants. After drying pots are stored at 25° C.
After the specified period of time mortality in % is determined by rating according to the following scheme/criteria.

[2] = tested on: Aulacophora femoralis 2nd instar larvae; test: Aulacophora femoralis spray test (AUACFE); settings: 0.8 ppm, 6 dat, rating scheme b297
Procedure: Aulacophora femoralis—Spray Test (AUACFE)
Insect: Aulacophora femoralis 2nd instar larvae from own culture;
Material: PET cups with 5 ml soil and A-PET lids
Plant: Cucumber (Cucumis sativus var. Hanshiro), cotyledon stage; 1 plant per pot;
Solvent pre-mixture: Sorpol® SD: Sorpol® BDB:Dimethylformamide=3:3:14;
10 mg a.i. solved with 0.05 ml solvent pre-mixture. Water for dilution contains RME and AS (1000 ppm each) or 0.1% of spreader. Solutions are diluted at the rate of 1:5 for limit concentration determination.
Procedure: Solutions are sprayed onto a plant. After drying, plants are cut and put on the soil in the testing cup. Five larvae L2 are released into each testing cup.
The testing cup is covered with the lid and stored at 25° C. and 50-60% r.h., 16L8D lighting conditions.
After the specified period of time, the mortality in % is determined according to the following scheme/criteria: […]

[3] = tested on: Bemisia tabacii biotype B; test: Bemisia tabacii spray test (BEMIAR); settings: 100 ppm, 14 dat, rating scheme b324
Procedure: Bemisia tabacii—Spray-Test (BEMIAR)
Insect: Bemisia tabacii biotype B
Plant: Tomato seedlings, 5 leaf stage in vinyl pots of 40 mm diameter
as §1
10 mg a.i. is solved with 0.05 ml solvent pre-mixture. Water for dilution contains RME and AS (1000 ppm each) or 0.1% of spreader. Solutions are diluted at the rate of 1:5 for limit concentration determination.
Procedure: Solutions are sprayed to the plants. After drying treated pots are placed in the greenhouse where breeding BEMIAR for an infection-time of 24 h. Then the plants is placed in the testing room at 25° C. and 50-60% r.h., 16L8D lighting conditions.
(§4) After the specified period of time mortality in % is determined according to the following scheme/criteria: […]

[4] = tested on: Nephotettix cincticeps-MR, resistant strain, 3rd-4th instar nymphs; test: Nephotettix cincticeps spray test (NEPHCI); settings: 7 dat
Procedure: Nephotettix cincticeps-Spray Test (NEPHCl)
Insect: Nephotettix cincticeps-MR, resistant strain, 3rd-4th instar nymphs from own culture
Plant: Rice seedlings (Oryza sativa var. Tamanishiki)
Material: ST-method container (200 ml desiccant polystyrene bottle) with a hole in the bottom sealed with metal mesh. The lid has a pit inside to keep desiccant, and it is used to sow rice seeds. The bottle is used upside down as “cover”, the lid with seedling is called “base”. Plastic stand-board with magnet labels to line the ST Bases up (“Stand”)
Solvent pre-mixture: Sorpol® SD: Sorpol® BDB:Dimethylformamide=3:3:14 10 mg a i. is solved with 0.05 ml solvent pre-mixture. Water for dilution contains RME and AS (1000 ppm each) or 0.1% of spreader. Solutions are diluted at the rate of 1:5 for limit concentration determination.
Procedure: On a pit in the center of a base (originally the desiccant space) pieces of paper towel are placed. 20-30 germinated rice seeds are sown on the paper and moistened with water. The base is covered with a plastic cup and kept in an incubator at 30° C. for five days.
The base with rice seedlings is placed on the Stand. Each base is sprayed with the solution.
After drying twelve 3rd-4th instar nymphs of Nephotettix cincticeps-MR are put on the base and confined with the cover. The ST containers on the Stands are kept in the testing room at 25° C. and 50-60% r.h., 16L8D lighting conditions.
After the specified period of time mortality in % is determined by rating according to the following scheme/criteria: Counting living moving insects, calculate mortality in % by the formula: […]

[5] = tested on: Plutella xylostella 3rd instar larvae; test: Plutella xylostella spray test (PLUTXY); settings: PLUTMA; 0.8 ppm; 7 dat
Procedure: Plutella xylostella—Spray Test (PLUTXY)
Insect: Plutella xylostella 3rd instar larvae from own culture
Material: A-PET cup, A-PET lids
Plant: Broccoli 5 leaf stage
as §1
10 mg a i. is solved with 0.05 ml solvent pre-mixture
as §3
Procedure: Broccoli seedlings of 4-5 leaf stage planted in a vinyl pot (9 cm diameter) are sprayed with the solution. After drying half of the leaves of the plants are cut and put into a A-PET cup. Ten larvae of Plutella xylostella L3 are released in the cup and the dish is placed at 25° C. After 4 days another half leaf is cut and added to the dish. After the specified period of time mortality in % is determined according to the figures of mortality used for evaluation. • 1 larva dead: 20% Efficacy • 5 larvae dead: 100% Efficacy Adoxophyes honmai—Test (ADXPFA)

Aulacophora femoralis = test: Biological Test Example 3: test against cucurbit leaf beetle (Aulacophora femoralis), cucumber leaf dip; settings: foliar, 168 h, active compound concentration 100 ppm, second instar larvae, after 7 days, read-out: insecticidal activity
Procedure: (§5) Unless not mentioned otherwise, the test solutions were prepared as follows:
(§6) Containing as solvent: Dimethylformamide, 3 parts by weight; and as emulsifier: Polyoxyethylene alkyl phenyl ether, 1 part by weight
(§7) To prepare the test solution, 1 part by weight of an active compound is mixed with the above-mentioned amount of solvent containing the above-mentioned amount of emulsifier, and the mixture is diluted with water to the desired concentration.
Test Against Cucurbit Leaf Beetle (Aulacophora femoralis)
Leaves of cucumber were immersed in the test solution at the appropriate concentration, and the leaves were dried in air. The leaves were then put in a plastic cup containing sterilized black soil and five Aulacophora femoralis at second instar larvae were released in the cup. The cups were placed in a temperature-controlled chamber at 25° C. After 7 days, the number of dead larvae was counted, and the insecticidal activity was calculated. An insecticidal activity of 100% means that all larvae were killed, whereas an insecticidal activity of 0% means that no larva was killed.

Tetranychus urticae = test: Biological Test Example 2: test against two-spotted spider mite (Tetranychus urticae), spray on kidney bean; settings: 168 h, active compound concentration 100 ppm, adult mites, after 7 days, read-out: acaricidal activity
Procedure: as §5, §6, §7
Test Against Two-Spotted Spider Mite (Tetranvchus urticae)
50 to 100 adult mites of Tetranychus urticae were inoculated to leaves of kidney bean at two-leaf stage planted in a pot of 6 cm in diameter. After one day, test solution at the appropriate concentration was sprayed thereon in a sufficient amount using a spray gun. After the spraying, the plant pot was placed inside a greenhouse, and after 7 days, the acaricidal activity was calculated. An acaricidal activity of 100% means that all mites were killed, whereas an acaricidal activity of 0% means that no mite was killed.

[6] = tested on: organic phosphorus agent- and carbamate agent-resistant Myzus persicae; test: Biological Test Example 4: test against organic phosphorus agent- and carbamate agent-resistant green peach aphid (Myzus persicae), spray on eggplant; settings: active compound concentration 100 ppm; after 7 days
Procedure: as §5, §6, §7
Test Against Organic Phosphorus Agent- and Carbamate Agent Resistant Green Peach Aphid (Myzus persicae)
50 to 100 head of organic phosphorous agent- and carbamate agent-resistant Myzus persicae were inoculated to leaves of eggplant at two-leaf stage, planted in a pot of 6 cm in diameter. After one day, test solution at the appropriate concentration was sprayed thereon in a sufficient amount using a spray gun. After the spraying, the plant pot was placed inside a greenhouse, and after 7 days, the insecticidal rate was calculated.
An insecticidal activity of 100% means that all aphids were killed, whereas an insecticidal activity of 0% means that no aphid was killed.

Spodoptera litura = test: Biological Test Example 1: test against tobacco cutworm (Spodoptera litura) larvae, sweet potato leaf dip; settings: foliar, 168 h, active compound concentration 100 ppm, third instar larvae, after 7 days, read-out: insecticidal activity
Procedure: as §5, §6, §7
Test Against Tobacco Cutworm (Spodoptera litura) Larvae
Leaves of sweet potato were immersed in the test solution at the appropriate concentration, and the leaves were dried in air. The leaves were then placed in a petri dish having a diameter of 9 cm, and ten Spodoptera litura at third instar larvae were released therein. The petri dishes were placed in a temperature-controlled chamber at 25° C.
After 2 days and 4 days more sweet potato leaves were added. After 7 days, the number of dead larvae was counted and the insecticidal activity was calculated. An insecticidal activity of 100% means that all larvae were killed, whereas an insecticidal activity of 0% means that no larva was killed. In the current test, the results of two petri dishes for each treatment were averaged.

[7] = tested on: Spodoptera litura L2 stage; test: Spodoptera litura root soaking test (PRODLI); settings: 20 ppm, 4 dat
Procedure: Spodoptera litura—Root Soaking Test (PRODLI)
Insect: Spodoptera litura L2 stage;
Material: Culture media bottles for hydroponics: Plastic (A-PET) cups for test, square type;
Plant: Broccoli 5 leaf stage (ca. 12 cm high), soil around the roots was washed off just before the test;
Solvent pre-mixture “Sorpol SD” for root soaking test;
Sorpol SD: Sorpol BDB:Dimethylformamide=3:3:140
Procedure: Test solutions are prepared in the bottles at the appropriate concentration. The test plant root is dipped into the test solution in the bottle and kept in a test room. After 3 days, ⅓ part of the leaves of the plants is cut and put into the A-PET cup.
Into each test cup five larvae L2 are released, the cup is covered with a lid and stored at 25° C. and at a relative humidity of 50-60% and under 16L8D lighting conditions.
After the specified period of time the mortality in % is determined and the rate of death is calculated.

[8] = tested on: Tetranychus urticae-S (sensible strain) mixed population; test: Tetranychus urticae test (TETRUR); settings: 0.16 ppm, 2 dat, rating scheme b334
Procedure: Tetranychus urticae—Test (TETRUR)
Insect: Tetranychus urticae-S (sensible strain) mixed population from own culture
Plant: Kidney bean seedlings (Phaseolus vulgaris var. Serena), 2 leaf stage (1 week after sowing)
as §1, §2, §3
Procedure: 1 day before treatment the apex parts of testing plants are pruned. Mites are inoculated onto the testing plants, about 20 adults per leaf, 40 adults and some nymphs for 1 pot. A paper label is placed on each pot. The solution is sprayed onto mites and plants. After drying pots are placed in the greenhouse, temperature 20° C.-25° C.
as §4

| SMILES | Efficacy/day(s) of treatment [1] [%/6 dat] | Efficacy/day(s) of treatment [3] [%/14 dat] | Efficacy/day(s) of treatment [5] [%/7 dat] | Efficacy/day(s) of treatment ([4]; 100 ppm) [%/7 dat] | Efficacy/day(s) of treatment [7] [%/4 dat] | Efficacy/day(s) of treatment [8] [%/2 dat] | other results |
| --- | --- | --- | --- | --- | --- | --- | --- |
| Cc1cc(C2=NOC(c3cc(C(F)(F)F)cc(C(F)(F)F)c3)(C(F)(F)F)C2)ccc1C(=O)NC1CSC1 (stereo not drawn) [ExNo A21 of WO 2009/080250, reference compound] | 60 | 60 | – | – | – | – | Efficacy/day(s) of treatment (Panonychus citri): 0%/7 dat; Efficacy/day(s) of treatment [2]: 50%/6 dat; Efficacy/day(s) of treatment ([4]; 20 ppm): 0%/7 dat |
| Cc1cc(C2=NOC(c3cc(C(F)(F)F)cc(C(F)(F)F)c3)(C(F)(F)F)C2)ccc1C(=O)NC1CS(=O)(=O)C1 (stereo not drawn) [Compound C-1, reference compound] | 60 | 60 | 80 | 70 | – | – | – |
| Cc1cc(C2=NCC(c3cc(C(F)(F)F)cc(C(F)(F)F)c3)(C(F)(F)F)C2)ccc1C(=O)NC1CS(=O)(=O)C1 (stereo not drawn) [Compound 1-21, 4-{3-[3,5-Bis(trifluoromethyl)phenyl]-3-(trifluoromethyl)-3,4-dihydro-2H-pyrrol-5-yl}-N-(1,1-dioxidothietan-3-yl)-2-methylbenzamide] | 98 | 98 | 100 | 90 | – | – | pest or weed control at 100 ppm (Aulacophora femoralis): 100%; pest or weed control at 100 ppm (Tetranychus urticae): 100%; insecticidal activity [6]: 100%; pest or weed control at 100 ppm (Spodoptera litura): 100% |
| Cc1cc(C2=NOC(c3cc(Cl)cc(Cl)c3)(C(F)(F)F)C2)ccc1C(=O)NC1CSC1 (stereo not drawn) [ExNo A-4 of WO 2009/080250] | – | – | – | – | 80 | 60 | – |
| Cc1cc(C2=NCC(c3cc(Cl)cc(Cl)c3)(C(F)(F)F)C2)ccc1C(=O)NC1CSC1 (stereo not drawn) [ExNo A49 of WO 2010/020522] | – | – | – | – | 100 | 90 | – |
